Test results reported in US20150141523A1, “COMPOUNDS FOR USE IN THE TREATMENT OF AUTOIMMUNE INFLAMMATORY DISEASE” (Venantius Limited, priority 2012, published 2015).

Legend:
[1] = test system: CD-1 mice; assay: Sheep red blood cell (SRBC) delayed-type hypersensitivity mouse paw swelling; assay type: in vivo; settings: 30 mg/kg; vehicle 89%
Protocol: The sheep red blood cells were first cleaned and counted as follows. 5 mls of the SRBC were spun down in a centrifuge at 3000 rpm for 10 minutes. The supernatant was removed and phosphate buffered saline (PBS), pH 7.4 added to the pellet. The pellet was mixed with the PBS buffer (5 mls) and spun down in a centrifuge at 3000 rpm for 10 minutes. The pellet was washed twice more with PBS buffer as described above. The pellet was then reconstituted in 5 mls of PBS buffer following the final wash. 10 μl of a 1 in 200 dilution of the sample of reconstituted sheep red blood cells (in trypan blue stain) was used to fill the counting chamber of a haemacytometer and the number of sheep red blood cells counted.
Male CD-1 mice (30-40 gms) were sensitised on day zero. The negative control group was sensitised with 100 μl PBS intraperitoneally (i.p.), while the positive control group and drug treated groups were sensitised with 1×10^7 SRBC (100 μl i.p.).
Animals were challenged 5 days later with SRBC. The SRBC were cleaned and counted as described above. Animals anaesthetised with halothane were challenged s.c. by injecting SRBC (3×10^8 cells in 20 μl) into the right hind paws and PBS (20 μl) into the left hind paws. […]
The difference in paw swelling between the saline-injected and SRBC-challenged contralateral paw of each mouse was calculated by measuring paw volume (mls) using a plethysmometer. […]

[2] = test system: Balb/C mice; assay: Oxazolone contact hypersensitivity (CHS) mouse ear swelling; assay type: in vivo; settings: P>0.05
Protocol: Female Balb/C mice (30-40 gms) were sensitised on day 0 with 20 μl of 2% oxazolone in acetone on each ear (10 μl on the inner and outer aspects of both ears). All mice were challenged on day 5 with 20 μl of 2% oxazolone in acetone only on the right ear; again, 10 μl on both the inner and outer aspects of the ear. Immediately following this, the mice were treated with test compound. The test compound was administered in exactly the same way as the oxazolone, with 10 μl on each side of the right ear. […] For the […] group, acetone was administered. All animals were killed 24 hrs later and the percentage increase in ear swelling was calculated. This was done in two ways. The thickness of the unchallenged left ear and the challenged right ear were measured using a micrometer caliper (μm). The increase in weight of both ears was also measured using a 5 mm biopsy punch (mgs). The percentage increase in oedema was then calculated for both weight and thickness by expressing the difference between the unchallenged left ear and the challenged right ear as a percentage of the left ear control.

[3] = test system: Jurkat cells; assay: Jurkat cell viability (Acridine Orange/Ethidium Bromide); assay type: cell-based
Protocol: (A) Anti-TCR/CD28-mediated activation of Jurkat cells: Experiments involving anti-TCR/CD28-mediated activation of Jurkat T lymphocytes were carried out on 24-well cell culture plates. The plates were coated with a 1/100 dilution of rabbit anti-mouse IgG in sterile PBS (1×) and incubated overnight at 4OC. Unbound antibody was aspirated and the wells were gently rinsed with warm sterile PBS. The PBS was aspirated and the wells were coated with a 1/100 dilution of anti-TCR antibody (OKT-3) and a 1/200 dilution of anti-CD28 antibody (both antibodies pre-mixed prior to addition to the plates) in sterile PBS. The plates were then incubated for 1-2 hours at 37° C. Unbound antibody was aspirated and the wells were gently rinsed with warm PBS. The PBS was left on the plate until the Jurkat cells were ready to be added to the plate. The Jurkat cells were harvested from the T-75cm2 cell culture flasks and resuspended at a density of 0.5×10^6 cells per ml. The compounds were dissolved at a specified stock concentration (see results section) and diluted to the required concentration by adding the drug to the cell suspension. The cells were then pre-incubated with the compounds or with an equivalent volume of drug vehicle control (DMSO) for 30 minutes prior to adding the cell suspension to the antibody-coated plates. Cyclosporine A (1 μM) was used as a positive control to inhibit IL-2 production from activated T cells and was preincubated with the 6 cells as described above in parallel. The cells were then incubated on the plates with the acti-TCR/CD28 antibodies for 24 hours at 37° C. and 5% CO2 in a humidified atmosphere. After 24 hours, the cell suspension was removed from the plates and the cells were pelleted by centrifugation. The cell culture supernatant was saved and analysed for secreted IL-2 by ELISA. The cell pellet was saved and cell viability was measured using Acridine Orange/Ethidium Bromide cell viability staining solution.
The cell pellet was resuspended in 20 μl of Acridine Orange/Ethidium Bromide staining solution. A portion of this cell suspension was placed on a haemocytometer and analysed under a fluorescence microscope. […] The ratio of viable cells: non-viable cells were calculated for each activation time point/drug treatment.

[4] = test system: Balb/C mice; assay: 5% DSS-induced murine colitis model; assay type: in vivo, mouse; settings: for inhibition of DAI in DSS-induced colitis: 5% DSS colitis (FIG. 9)
[5] = test system: β-hexosaminidase release from RBL-2H3 cells; settings: RBL-2H3 cells stimulated by calcium ionophore A23187; Bioorg. Med. Chem. Lett. 19(20), 2009; cited from earlier work

Structure (SMILES)	SRBC paw swelling [1] [%]	effect on oxazolone mouse ear swelling [2]	cell viability [3]	inhibition of DAI in DSS-induced colitis [4]	inhibition of β-hexosaminidase release [5]	effect on DSS-induced weight loss ([4]; 5% DSS colitis, 30 mg/kg p.o. (FIG. 8))
O[C@@H]1c2ccccc2C[C@]1(Cc1ccccc1)C1=Cc2ccccc2C1 (mixture of isomers) [Compound 5, (R,S and SR)2-Benzyl-2,3-dihydro-1H,1′H-2,2′-biinden-1-ol]	60	no significant effect	without affecting cell viability	only 6 caused a significant	dose-dependant inhibition	–
O[C@H]1c2ccccc2C[C@]1(Cc1ccccc1)C1=Cc2ccccc2C1 (mixture of isomers) [Compound 6, (S,S and RR)2-Benzyl-2,3-dihydro-1H,1′H-2,2′-biinden-1-ol]	52	no significant effect	without affecting cell viability	significant (P<0.01) inhibition	–	ameliorated
